Source: patent publication US20170172994A1, “COMPOSITIONS AND METHODS FOR TREATING BACTERIAL INFECTIONS” (WOCKHARDT LIMITED, priority 2013, published 2017)
Like-named read-outs stand apart in the source and are kept apart here.

Assays:
[1] = tested on: ESBL enzymes from K. pneumoniae S48 producing Metalo betalactamase (NDM4) and Class A (CTX-M, SHV, TEM) beta-lactamase; test: Beta-lactamase stability study (crude enzyme extract, then drug diffusion assay on E. coli ATCC 25922); type: biochemical; conditions: for Inhibition zone diameter after treatment with beta-lactamase enzyme: 40 μg/ml, zone on E. coli ATCC 25922
Procedure: (§1) Next, the beta-lactamase stability of some of these compounds was evaluated. In a typical stability study, ESBL enzymes from K. pneumoniae S48 producing Metalo betalactamase (NDM4) and Class A (CTX-M, SHV, TEM) beta-lactamase were isolated from freshly grown culture by 5 repetitive cycles of freeze and thaw in liquid nitrogen. […] After the stipulated incubation duration, the test compounds were extracted from the reaction mixture by the addition of 0.5 ml of Acetonitrile in 1:1 ratio (final concentration of test compound—40 μg/ml) and centrifuged at 12000 rpm for 2 min to separate precipitated protein. The activity of test compounds was measured from the supernatant by performing microbiological drug diffusion assay. For drug diffusion assay, Muller-Hinton Agar (MHA) seeded with E. coli ATCC 25922 was poured on to a bioassay plate placed on a flat surface and allowed to solidify. Appropriate concentration of the standalone and enzyme treated test compound dilutions were added to 6 mm wells cut with the help of a borer. The antibacterial activity of the test compounds was measured in terms of zones of inhibition appearing after 18-24 hours of incubation at 37° C. Measurement of diameter of zone of inhibition was undertaken to the nearest whole value with the help of ruler.

[2] = tested on: P. mirabilis G 186; test: MIC determination; type: cell-based; conditions: Proteus mirabilis, G186; P. mirabilis G 186 (NDM, TEM)
Procedure: (§2) In a typical procedure for determining MIC values, overnight grown bacterial cultures were diluted appropriately and inoculated on the agar media containing doubling concentrations of the test compounds. Observation for growth or no growth was performed after 16-20 hours of incubation at 35±2° C. in ambient air. The overall procedure was performed as per Clinical and Laboratory Standards Institute (CLSI) recommendations (Clinical and Laboratory Standards Institute (CLSI), Performance Standards for Antimicrobial Susceptibility Testing, 20th Informational Supplement, M 100-S20, Volume 30, No. 1, 2010).

[3] = tested on: K. pneumoniae B88; test: MIC determination; type: cell-based; conditions: Klebsiella pneumoniae; K. pneumoniae B88 (NDM, SHV, TEM)
Procedure: as §2

[4] = tested on: E. coli ATCC 25922; test: Microbiological drug diffusion assay, standalone compounds in absence of beta-lactamase enzymes; type: cell-based; conditions: Escherichia coli, ATCC25922, 40 μg/ml, no beta-lactamase, read-out: Inhibition zone diameter
Procedure: as §1

[5] = target: T1, Pseudomonas PBP 1A (Pseudomonas aeruginosa, UniProt Q07806); test: PBP binding assay (Bocillin FL competition); conditions: Pseudomonas PBP 1A; read-out: IC50 (converted)
T1 construct: endogenous in cells
Procedure: (§3) The phrase “selective and high affinity PBP binder” refers to a PBP binder which binds to only one PBP with very high affinity. In general, the term “selective and high affinity PBP binder” also includes those binders where a substantial fraction of binder selectively binds to only one PBP with high affinity. […]. The term “IC50 value” of a compound refers to the concentration of the compound that reduces the binding of Bocillin-FL to PBPs by 50% as compared to when no compound was added to the reaction.
(§4) A compound of Formula (III) was prepared using the procedure disclosed in PCT International Application No. PCT/IB2012/054290 and was evaluated for its PBP binding affinity profile. […] The reaction mixtures were then denatured with 20 μl each of SDS-denaturing solution at 100° C. for 3 min PBPs were separated through 10% SDS polyacrylamide gel electrophoresis (Bio-Rad Laboratories, Hercules, Calif.). The protein gels were rinsed in water immediately after electrophoresis. […] […].

[6] = target: Pseudomonas PBP 5/6 (Pseudomonas aeruginosa, UniProt G3XD74); test: PBP binding assay (Bocillin FL competition); conditions: read-out: IC50
Procedure: as §3, §4

[7] = tested on: K pneumoniae J 101; test: MIC determination (agar dilution, CLSI); type: cell-based; conditions: K pneumoniae J 101 (TEM1, SHV12, OMP); standalone
Procedure: as §2

[8] = tested on: K pneumoniae J 105; test: MIC determination (agar dilution, CLSI); type: cell-based; conditions: K pneumoniae J 105 (TEM1, SHV2, CTX-M, OMP); standalone
Procedure: as §2

[9] = tested on: K pneumoniae J 102; test: MIC determination (agar dilution, CLSI); type: cell-based; conditions: K pneumoniae J 102 (TEM1, SHV5, OMP); standalone
Procedure: as §2

[10] = tested on: K pneumoniae J 104; test: MIC determination (agar dilution, CLSI); type: cell-based; conditions: K pneumoniae J 104 (TEM1, SHV11, CTX-M, OMP); standalone
Procedure: as §2

[11] = target: T2, Pseudomonas PBP 3 (Pseudomonas aeruginosa, UniProt G3XD46); test: biochemical; type: binding
T2 construct: endogenous in cells
Procedure: The phrase “selective and high affinity PBP binder” refers to a PBP binder which binds to only one PBP with very high affinity. In general, the term “selective and high affinity PBP binder” also includes those binders where a substantial fraction of binder selectively binds to only one PBP with high affinity.
The reaction mixtures were then denatured with 20 μl each of SDS-denaturing solution at 100° C. for 3 min PBPs were separated through 10% SDS polyacrylamide gel electrophoresis (Bio-Rad Laboratories, Hercules, Calif.). The protein gels were rinsed in water immediately after electrophoresis.

T2 sequence (G3XD46 whole entry): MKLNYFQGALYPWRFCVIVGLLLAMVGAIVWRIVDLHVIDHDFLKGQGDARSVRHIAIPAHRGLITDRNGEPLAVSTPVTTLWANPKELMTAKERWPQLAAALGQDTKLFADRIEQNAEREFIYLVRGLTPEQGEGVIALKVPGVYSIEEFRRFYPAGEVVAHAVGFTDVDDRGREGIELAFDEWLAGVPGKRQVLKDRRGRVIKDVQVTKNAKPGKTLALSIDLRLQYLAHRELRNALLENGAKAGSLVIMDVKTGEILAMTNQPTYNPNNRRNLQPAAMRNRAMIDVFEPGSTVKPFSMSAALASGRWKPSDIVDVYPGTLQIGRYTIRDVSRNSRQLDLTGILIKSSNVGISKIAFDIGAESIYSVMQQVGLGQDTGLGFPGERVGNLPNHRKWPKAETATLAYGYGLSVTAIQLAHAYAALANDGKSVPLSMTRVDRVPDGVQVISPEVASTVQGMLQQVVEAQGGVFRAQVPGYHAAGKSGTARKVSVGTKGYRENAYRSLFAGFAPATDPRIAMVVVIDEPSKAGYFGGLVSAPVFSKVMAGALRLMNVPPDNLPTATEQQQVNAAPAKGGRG
Pseudomonas PBP 5/6, sequence (G3XD74 entry or part of it): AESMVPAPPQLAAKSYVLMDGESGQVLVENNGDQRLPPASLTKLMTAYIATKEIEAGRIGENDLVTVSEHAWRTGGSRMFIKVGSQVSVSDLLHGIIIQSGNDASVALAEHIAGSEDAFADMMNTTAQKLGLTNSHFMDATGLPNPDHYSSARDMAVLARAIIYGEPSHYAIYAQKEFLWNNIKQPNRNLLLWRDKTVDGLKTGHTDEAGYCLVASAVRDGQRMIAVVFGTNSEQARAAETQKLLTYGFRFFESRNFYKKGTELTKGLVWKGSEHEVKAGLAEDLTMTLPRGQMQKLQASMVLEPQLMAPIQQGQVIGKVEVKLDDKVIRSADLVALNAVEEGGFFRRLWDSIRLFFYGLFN
T1 sequence (Q07806 whole entry): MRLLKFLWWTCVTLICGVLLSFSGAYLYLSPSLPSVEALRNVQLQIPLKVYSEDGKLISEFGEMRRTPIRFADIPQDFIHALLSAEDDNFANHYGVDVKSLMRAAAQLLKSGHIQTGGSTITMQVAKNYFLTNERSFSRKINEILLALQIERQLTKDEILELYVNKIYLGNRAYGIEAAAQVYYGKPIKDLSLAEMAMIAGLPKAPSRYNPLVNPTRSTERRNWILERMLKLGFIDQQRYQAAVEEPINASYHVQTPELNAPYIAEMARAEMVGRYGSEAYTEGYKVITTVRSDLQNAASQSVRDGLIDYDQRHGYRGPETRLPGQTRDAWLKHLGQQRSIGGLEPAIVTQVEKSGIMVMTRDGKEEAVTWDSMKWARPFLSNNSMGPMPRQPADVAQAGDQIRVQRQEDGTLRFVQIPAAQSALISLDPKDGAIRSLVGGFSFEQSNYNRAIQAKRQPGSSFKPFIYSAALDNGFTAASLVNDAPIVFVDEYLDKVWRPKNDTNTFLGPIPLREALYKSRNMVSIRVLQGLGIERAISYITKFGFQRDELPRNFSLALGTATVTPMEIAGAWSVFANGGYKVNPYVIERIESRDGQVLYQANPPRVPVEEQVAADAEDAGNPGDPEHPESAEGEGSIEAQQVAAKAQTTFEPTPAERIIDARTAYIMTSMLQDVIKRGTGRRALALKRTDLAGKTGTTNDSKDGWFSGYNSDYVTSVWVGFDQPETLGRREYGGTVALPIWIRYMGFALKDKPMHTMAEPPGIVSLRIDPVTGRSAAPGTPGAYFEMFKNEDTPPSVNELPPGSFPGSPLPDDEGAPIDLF

In the case of `O=C(NNC(=O)[C@@H]1CC[C@@H]2CN1C(=O)N2OS(=O)(=O)O)[C@@H]1CCCNC1` [Compound of Formula (III), trans-(2S,5R)-sulfuric acid mono-[2-(N′—[(R)-piperidin-3-carbonyl]-hydrazino Carbonyl)-7-oxo-1,6-diaza-bicyclo[3.2.1]oct-6-yl] Ester], the “Inhibition zone diameter after treatment with beta-lactamase enzyme” value (from here on “Inhibition zone diameter after treatment”) ([1]; 0 hour incubation at 37° C.) is reported as 16 mm, the “Inhibition zone diameter after treatment” value ([1]; 1 hour incubation at 37° C.) is reported as 16 mm and the “Inhibition zone diameter after treatment” value ([1]; 2 hours incubation at 37° C.) is reported as 16 mm. The “Inhibition zone diameter after treatment” value ([1]; 24 hours incubation at 37° C.) was 16 mm, the “Stability to beta-lactamase (in words)” value ([1]; carbapenem hydrolyzing metallo beta-lactamase, up to 24 hours) was “stable and not inactivated by the beta-lactamase” and the MIC [2] was over 64 µg/mL. The MIC [3] was 8 µg/mL, the zone of inhibition at 40 µg/mL ([4]; 0 hour) was 16 mm and the zone of inhibition at 40 µg/mL ([4]; 1 hour) was 16 mm. The zone of inhibition at 40 µg/mL ([4]; 2 hours) was 16 mm, the zone of inhibition at 40 µg/mL ([4]; 24 hours) was 16 mm and the IC50 [5] was over 10.2 µM. It also gave an IC50 [6] of over 10.2 µM, an MIC [7] of over 32 µg/mL and an MIC [8] of over 32 µg/mL. For the same molecule, the MIC [9] was over 32 µg/mL, the MIC [10] was over 32 µg/mL and the IC50 [11] was over 10.2 µM.
